Consider 1 molecule from US20210228552A1, “METHOD FOR ADJUSTING RAS UBIQUITINATION” (Xiamen University, priority 2018, published 2021).

In assay [1] the target is T1, K-Ras-G12V (Homo sapiens, UniProt P01116, G12V). As to the kind of experiment: Endogenous K-Ras-G12V protein level in SW620 cells (Western blotting). It is filed as cell-based. The arrangement: endogenous in cells; host or cells: SW620. As to conditions: 2.5-20 μM, 24 h, FIG. 3(a). As for the experimental part: Compounds that can Decrease the Level of Endogenous K-Ras-G12V were Screened in SW620 Cells
1) Cell plating: SW620 cells in logarithmic growth phase were inoculated into 24-well plates with 2×10^4/well and cultured in 37° C. and 5% CO2 incubator.
2) Cell administration: after 24 hours of culture, various drug stock solutions were diluted […]; the stock solution from the 24-well plate was discarded, then the prepared drug solution was added, with taking the DMSO group as a blank control; after the drug was added, it was transferred to the CO2 incubator at 37° C. to continue the culture.
(§1) 3) Detection of K-Ras protein level: 24 hours after administration, liquid in the well was discarded, the cells were routinely collected, the cells were rinsed twice with 1×PBS, and the cell lysate was added to extract the total cell protein. The protein concentration was determined by BCA method. […]
4) Calculation of single point K-Ras protein degradation rate: quantitative and calibration analysis on K-Ras and β-actin were performed by Image-Lab software, and then the intracellular K-Ras degradation rate was calculated according to the following formula: single point K-Ras protein degradation rate (%)=(control group-administration group)/control group×100%. […]
On the technique in general: A western blot detects proteins with antibodies after separation by electrophoresis.

A further assay has as its system MCF-7 cells. As to the kind of experiment: Colony forming ability on soft agar, MCF-7 cells. It is filed as cell-based, Human. The settings on record: 10-30 days, FIG. 4(a). As for the experimental part: (§2) i. 1% agar was prepared and sterilized under high pressure. 1% Agar was heated and melted in a boiling water bath before use, then cooled in a 40° C. water bath (standing for at least 30 minutes and cooling the agar to 40° C.); and 2×DMEM/FBS was placed in a warm bath at the same time;
(§3) ii. 0.5% bottom agar was prepared by mixing 1% agar and 2×DMEM/FBS in a sterile tube at a volume ratio of 1:1. The mixture was quickly added to a 6-well plate, 1.5 mL per well, gently shake it well, and it was stood at room temperature to be solidified (after solidification, it can be stored at 4° C. for 1 week. Leave at room temperature for at least 30 minutes before use to restore it to room temperature).
(§4) i. A final concentration of 0.3% agar+1×DMEM/FBS mixture was prepared in sterile tubes by using 1% agar at a temperature of 40° C., 2×DMEM/FBS and sterile water. The prepared mixed solution was put into a 40° C. water bath kettle for later use;
(§5) ii. The cells were digested by trypsin and counted, and the cell density was adjusted according to the needs of the experiment; […]

A further assay relates to SW620 cells. In words: Colony forming ability on soft agar, SW620 cells. It is filed as cell-based, Human. The settings on record: 10-30 days, FIG. 4(b). As for the experimental part:
as §2, §3, §4, §5

In assay [2] the target is T1, K-Ras-G12V. As to the kind of experiment: Exogenous Flag-K-Ras-G12V protein level in transfected HEK293T cells (Western blotting). It is filed as cell-based. As to conditions: HEK293T cells transfected with Flag-K-Ras-G12V, 2.5-20 μM, 24 h, FIG. 3(b). As to the method: Compounds that can Decrease the Level of Exogenous K-Ras-G12V were Screened in HEK293T Cells
1) Cell plating: HEK293T cells in logarithmic growth phase were inoculated into 12-well plates and cultured in 37° C. and 5% CO2 incubator. The best inoculation amount was at a cell density of 70%-90% when transfected the next day. […]
as §1
4) Calculation of single point K-Ras protein degradation rate: quantitative and calibration analysis on Flag-K-Ras and β-actin were performed by Image-Lab software, and then the intracellular Flag-K-Ras degradation rate was calculated according to the following formula: single point Flag-K-Ras protein degradation rate (%)=(control group-administration group)/control group×100%. […]

Another assay deals with HT-29 cells. As to the kind of experiment: Colony forming ability on soft agar, HT-29 cells. It is filed as cell-based, Human. As to conditions: HT-29 cells (Raf kinase mutation), 10-30 days, FIG. 4(c). As to the method:
as §2, §3, §4, §5

Entries after “also recorded” stand apart in the source; their conditions may differ.

Turning to `O=C(NCc1ccccc1C(F)(F)F)c1c[nH]c(-c2n[nH]c3ncccc23)c1` [ZT-10-158-01], the “level of endogenous K-Ras-G12V protein” value on K-Ras-G12V [1] was “effective in decreasing K-Ras protein levels in cells, and in a positive concentration-dependent correlation; also recorded: effective in decreasing the level of endogenous K-Ras-G12V protein in SW620 cells with a positive concentration-dependent inhibitory effect”. Moreover, the “colony forming ability on agar” value with MCF-7 cells is “can selectively inhibit the colony formation; also recorded: effective in inhibiting colony forming ability”; with SW620 cells, “can selectively inhibit the colony formation; also recorded: effective in inhibiting colony forming ability”; in the assay with HT-29 cells it was “no significant inhibitory effect; also recorded: did not inhibit the colony forming ability”. Also, the “level of exogenous K-Ras-G12V protein” value at K-Ras-G12V [2] is “effective in decreasing K-Ras protein levels in cells, and in a positive concentration-dependent correlation; also recorded: effective in decreasing the level of exogenous K-Ras-G12V protein in HEK293T cells with a positive concentration-dependent inhibitory effect”.
